# Experimental data as given in PMC7718273 (Scientific Reports, 2020).
# Like-named read-outs stand apart in the source and are kept apart here.
# Experiments:
# [1] = in vivo; settings: cynomolgus monkey, plasma, inhaled or intranasal, 50 mg/kg
# Experimental: Intact FGF21 levels in plasma were measured by ELISA.
# FAP activity and intact FGF21 concentrations were measured as described above.
# [2] = Plasma protein binding, human; format: in vitro ADME; settings: human (H), read-out: Plasma protein binding (% bound) (converted)
# Experimental: Protein binding was conducted as described. Compound solutions prepared in DMSO were diluted in phosphate buffer (final concentration: 1 µg/mL), and added into human plasma (total volume: 1 mL). Aliquots were then transferred in duplicate to: (i) a final concentration plate that was immediately quenched with 23.6 ng/mL internal standard (IS, chlorpropamide) in ACN, (ii) a degradation control, which was placed in a water bath at 37℃ for 4 h, and (iii) ultracentrifuge tubes, which were centrifuged for 5 min at 4℃ (14,000 rpm). All reactions were stopped by the addition of ACN containing 23.6 ng/mL chlorpropamide. The samples were subjected to LC–MS/MS analysis.
# [3] = molecular target: T1, DPP4 (Homo sapiens, UniProt P27487); assay: DPP4 activity, fluorometric assay with AMC substrate; format: biochemical; settings: fluorometric assay using AMC substrates
# T1 construct: purchased R&D Systems 9168-SE
# Experimental: (§1) Recombinant human PREP (hPREP) (catalog no. 4308-SE), hDPP2/7 (catalog no. 3438-SE), hDPP9 (catalog no. 5419-SE), hFAP (catalog no. 3715-SE), and hDPP4 (catalog no. 9168-SE) proteins were from R&D Systems (Minneapolis, MN). Human FGF21 (catalog no. CRF159C) was from Cell Science (Newburyport, MA).
# (§2) FAP enzyme activities were assayed in 20 mM Tris/HCl, 0.1 M NaCl, 1 mM EDTA (pH 8.0) in the presence of 40 μM Suc-Gly-Pro-Leu-Gly-Pro-AMC (#I-1350.0100, BACHEM, Bubendorf, Switzerland) and hFAP in a total volume of 100 µL. […] The inhibitor concentrations ranged from 100 μM to 0.03 nM, and its IC50 values were computed with commercially available curve-fitting programs such as the SigmaPlot. Other protease activities were determined in a similar manner.
# [4] = molecular target: T2, hFAP (Homo sapiens, UniProt Q12884); assay: FAP enzyme activity, fluorometric assay with AMC substrate; format: biochemical
# T2 construct: purchased R&D Systems 3715-SE
# T2 sequence (Q12884 whole entry): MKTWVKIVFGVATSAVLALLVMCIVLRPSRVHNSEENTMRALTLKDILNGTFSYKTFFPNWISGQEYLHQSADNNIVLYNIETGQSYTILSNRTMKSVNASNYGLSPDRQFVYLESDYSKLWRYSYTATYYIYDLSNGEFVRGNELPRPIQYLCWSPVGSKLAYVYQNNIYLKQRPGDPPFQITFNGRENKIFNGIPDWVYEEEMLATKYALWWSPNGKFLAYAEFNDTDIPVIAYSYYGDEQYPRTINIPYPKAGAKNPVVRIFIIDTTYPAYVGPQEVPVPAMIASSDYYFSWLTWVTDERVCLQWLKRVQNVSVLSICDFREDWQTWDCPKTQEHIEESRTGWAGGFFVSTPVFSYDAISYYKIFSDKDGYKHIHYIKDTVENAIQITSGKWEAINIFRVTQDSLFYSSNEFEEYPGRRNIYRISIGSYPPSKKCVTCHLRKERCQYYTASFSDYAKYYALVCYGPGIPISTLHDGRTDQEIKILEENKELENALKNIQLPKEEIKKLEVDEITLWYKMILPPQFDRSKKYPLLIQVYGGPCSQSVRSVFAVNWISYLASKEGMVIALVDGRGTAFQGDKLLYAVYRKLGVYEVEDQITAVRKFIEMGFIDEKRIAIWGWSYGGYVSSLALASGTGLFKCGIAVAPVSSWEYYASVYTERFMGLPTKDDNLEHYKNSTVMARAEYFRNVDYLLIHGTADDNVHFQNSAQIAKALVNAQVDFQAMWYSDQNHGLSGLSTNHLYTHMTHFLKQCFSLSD
# Experimental: as §1, §2
# [5] = molecular target: T3, DPP9 (Homo sapiens, UniProt Q86TI2); assay: DPP9 activity, fluorometric assay with AMC substrate; format: biochemical; settings: fluorometric assay using AMC substrates
# T3 construct: purchased R&D Systems 5419-SE
# T3 sequence (Q86TI2 whole entry): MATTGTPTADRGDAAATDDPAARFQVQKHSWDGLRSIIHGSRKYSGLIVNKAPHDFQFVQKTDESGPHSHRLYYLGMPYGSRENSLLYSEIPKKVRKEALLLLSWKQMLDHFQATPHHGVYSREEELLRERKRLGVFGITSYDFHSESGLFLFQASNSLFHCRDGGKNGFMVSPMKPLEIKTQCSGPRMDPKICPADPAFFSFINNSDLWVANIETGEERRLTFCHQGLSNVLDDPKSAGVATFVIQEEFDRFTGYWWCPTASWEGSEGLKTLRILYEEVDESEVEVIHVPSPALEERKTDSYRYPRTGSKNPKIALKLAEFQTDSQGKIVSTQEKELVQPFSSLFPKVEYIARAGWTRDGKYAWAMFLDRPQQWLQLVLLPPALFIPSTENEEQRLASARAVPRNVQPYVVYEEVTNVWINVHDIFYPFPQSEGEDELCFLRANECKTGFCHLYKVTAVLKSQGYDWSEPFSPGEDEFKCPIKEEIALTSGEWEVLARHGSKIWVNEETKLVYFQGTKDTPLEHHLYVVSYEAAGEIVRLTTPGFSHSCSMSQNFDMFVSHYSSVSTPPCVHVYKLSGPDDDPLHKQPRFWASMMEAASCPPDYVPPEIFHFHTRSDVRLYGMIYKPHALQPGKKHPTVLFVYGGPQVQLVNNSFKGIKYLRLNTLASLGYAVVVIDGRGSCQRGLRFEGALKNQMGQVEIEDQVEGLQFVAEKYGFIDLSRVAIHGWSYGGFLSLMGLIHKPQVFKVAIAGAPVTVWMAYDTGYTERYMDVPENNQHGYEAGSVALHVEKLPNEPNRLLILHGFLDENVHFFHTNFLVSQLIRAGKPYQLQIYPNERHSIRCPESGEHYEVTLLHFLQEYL
# Experimental: as §1, §2
# [6] = tested on: ob/ob mice; assay: Acute study using ob/ob mice: blood glucose and intact hFGF21; settings: for nonfasting blood glucose level, average: 3 h after administration
# Experimental: Blood was collected at the indicated time points. (a) Nonfasting blood glucose levels were measured at the indicated time points. […] (c) Plasma intact hFGF21 levels were measured using ELISA kit at 1, 3, 6, and 9 h. All data are the means ± S.D. *P < 0.05, **P < 0.01 and *** P < 0.001 vs. vehicle group.
# Blood was promptly collected by orbital bleeding that was allowed to clot, and supernatant was collected after centrifugation at 4 °C at 3000 rpm. Serum intact FGF21 concentrations were measured by intact hFGF21 ELISA (Alpco, Keewaydin Dr, Salem, NH, catalog no. 43-FGFHU-E01)[29].
# [7] = tested on: ob/ob mice; assay: Chronic study using ob/ob mice (4 weeks)
# From the text: (a) Nonfasting blood glucose levels in ob/ob mice. […] (g) The plasma levels of ALT (GPT), AST (GOT), TG, total cholesterol and NEFA in ob/ob mice. […] (i) Relative expression of genes related to intrahepatic lipogenic gene (GCK), fatty acid and TG synthesis genes (FASN, SREBP and APOC3, LIPIN1), β-oxidation genes (CPT1α, MCAD and PPARα) and FGF21 related genes (ATF4, CHOP, FGF21 and β-klotho) in liver and FGF21 related genes (AdipoQ and β-klotho) in white adipose tissue of ob/ob mice.
# During the observation period, mice were monitored for glucose profiles and weighed. […] Under anesthesia, blood was promptly collected by orbital bleeding and then harvested. Liver tissue was then collected. Serum ALT, AST, TG, total cholesterol, and NEFA levels were assessed by KNOTUS (Incheon, Korea).
# [8] = molecular target: T4, PREP (Homo sapiens, UniProt P48147); assay: PREP activity, fluorometric assay with AMC substrate; format: biochemical
# T4 construct: purchased R&D Systems 4308-SE
# T4 sequence (P48147 whole entry): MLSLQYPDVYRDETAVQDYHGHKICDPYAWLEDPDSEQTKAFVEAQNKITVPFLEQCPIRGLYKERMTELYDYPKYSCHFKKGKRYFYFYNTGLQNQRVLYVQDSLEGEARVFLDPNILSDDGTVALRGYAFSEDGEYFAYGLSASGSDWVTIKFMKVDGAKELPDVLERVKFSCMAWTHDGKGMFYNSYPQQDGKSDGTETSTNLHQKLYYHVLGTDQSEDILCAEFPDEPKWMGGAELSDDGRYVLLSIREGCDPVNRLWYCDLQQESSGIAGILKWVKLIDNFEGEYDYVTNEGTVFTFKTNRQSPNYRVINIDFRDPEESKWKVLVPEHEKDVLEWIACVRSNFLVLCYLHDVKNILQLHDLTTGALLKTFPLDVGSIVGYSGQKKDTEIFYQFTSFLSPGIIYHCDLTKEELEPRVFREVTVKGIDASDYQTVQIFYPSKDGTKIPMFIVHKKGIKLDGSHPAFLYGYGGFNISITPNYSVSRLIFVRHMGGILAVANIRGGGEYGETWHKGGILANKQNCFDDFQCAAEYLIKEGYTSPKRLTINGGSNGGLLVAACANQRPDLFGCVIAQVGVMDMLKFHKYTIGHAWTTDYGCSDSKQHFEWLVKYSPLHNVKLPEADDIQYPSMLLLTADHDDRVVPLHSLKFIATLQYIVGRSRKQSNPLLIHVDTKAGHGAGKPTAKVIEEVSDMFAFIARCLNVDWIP
# Experimental: as §1, §2
# [9] = molecular target: T5, CYP 1A2 (Homo sapiens, UniProt P05177); assay: CYPs inhibition, human liver microsome, substrate cocktail; format: in vitro ADME; settings: 1st of 5 values; head prints H; footnote lists CYPs 1A2, 2C9, 2C19, 2D6, 3A4; read-out: CYPs inhibition (IC50, µM) (H/Mk/D/R/M)
# T5 construct: from tissue; host or cells: human liver microsomes
# T5 sequence (P05177 whole entry): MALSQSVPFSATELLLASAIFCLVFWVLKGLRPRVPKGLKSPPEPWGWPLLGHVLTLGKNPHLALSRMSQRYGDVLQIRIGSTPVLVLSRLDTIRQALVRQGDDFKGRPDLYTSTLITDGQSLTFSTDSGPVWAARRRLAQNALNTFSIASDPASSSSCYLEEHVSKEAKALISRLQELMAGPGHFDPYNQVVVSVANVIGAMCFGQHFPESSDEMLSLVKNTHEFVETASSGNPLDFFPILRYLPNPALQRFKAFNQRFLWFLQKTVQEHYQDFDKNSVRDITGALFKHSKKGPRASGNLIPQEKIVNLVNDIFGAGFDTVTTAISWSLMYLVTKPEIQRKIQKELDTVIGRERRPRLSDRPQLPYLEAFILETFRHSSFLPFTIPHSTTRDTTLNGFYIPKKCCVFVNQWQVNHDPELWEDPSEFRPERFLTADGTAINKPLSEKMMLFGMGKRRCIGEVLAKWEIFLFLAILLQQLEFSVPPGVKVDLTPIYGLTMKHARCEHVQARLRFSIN
# From the text: (§3) Metabolites of the substrate probes were simultaneously analyzed by multiple-reaction monitoring using routine LC-MS/MS.
# [10] = molecular target: T6, CYP 2C19 (Homo sapiens, UniProt P33261); assay: as above; format: in vitro ADME; settings: 3rd of 5 values; head prints D; footnote lists CYPs 1A2, 2C9, 2C19, 2D6, 3A4; read-out: CYPs inhibition (IC50, µM) (H/Mk/D/R/M)
# T6 construct: from tissue; host or cells: human liver microsomes
# T6 sequence (P33261 whole entry): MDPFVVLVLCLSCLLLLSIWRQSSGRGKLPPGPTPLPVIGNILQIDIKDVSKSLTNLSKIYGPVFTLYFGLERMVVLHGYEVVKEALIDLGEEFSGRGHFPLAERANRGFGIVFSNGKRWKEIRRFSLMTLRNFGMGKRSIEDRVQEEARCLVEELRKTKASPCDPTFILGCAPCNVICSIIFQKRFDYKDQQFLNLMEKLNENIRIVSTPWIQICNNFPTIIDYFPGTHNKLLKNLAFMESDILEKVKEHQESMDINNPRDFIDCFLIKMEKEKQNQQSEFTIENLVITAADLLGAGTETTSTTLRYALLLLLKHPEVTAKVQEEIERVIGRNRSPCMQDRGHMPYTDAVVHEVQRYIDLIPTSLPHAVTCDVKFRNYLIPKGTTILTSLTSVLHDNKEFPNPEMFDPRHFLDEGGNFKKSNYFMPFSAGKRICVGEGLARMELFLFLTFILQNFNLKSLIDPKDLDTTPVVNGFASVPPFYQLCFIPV
# From the text: as §3
# [11] = molecular target: T7, CYP 3A4 (Homo sapiens, UniProt P08684); assay: as above; format: in vitro ADME; settings: 5th of 5 values; head prints M; footnote lists CYPs 1A2, 2C9, 2C19, 2D6, 3A4; read-out: CYPs inhibition (IC50, µM) (H/Mk/D/R/M)
# T7 construct: from tissue; host or cells: human liver microsomes
# T7 sequence (P08684 whole entry): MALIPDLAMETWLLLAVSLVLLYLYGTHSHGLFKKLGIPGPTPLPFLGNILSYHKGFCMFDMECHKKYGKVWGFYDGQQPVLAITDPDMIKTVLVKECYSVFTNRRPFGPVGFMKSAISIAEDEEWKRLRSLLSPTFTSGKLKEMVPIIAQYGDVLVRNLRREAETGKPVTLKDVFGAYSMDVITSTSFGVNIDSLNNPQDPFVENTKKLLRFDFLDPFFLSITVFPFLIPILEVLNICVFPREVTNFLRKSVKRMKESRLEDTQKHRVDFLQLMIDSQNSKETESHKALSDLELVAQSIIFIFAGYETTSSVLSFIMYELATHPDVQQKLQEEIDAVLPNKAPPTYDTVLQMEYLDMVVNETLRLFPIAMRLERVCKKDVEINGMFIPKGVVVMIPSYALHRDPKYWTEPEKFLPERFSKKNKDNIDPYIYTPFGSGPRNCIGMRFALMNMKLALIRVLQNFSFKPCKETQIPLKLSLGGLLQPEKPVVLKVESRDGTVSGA
# From the text: as §3
# [12] = molecular target: T8, CYP 2D6 (Homo sapiens, UniProt P10635); assay: as above; format: in vitro ADME; settings: 4th of 5 values; head prints R; footnote lists CYPs 1A2, 2C9, 2C19, 2D6, 3A4; read-out: CYPs inhibition (IC50, µM) (H/Mk/D/R/M)
# T8 construct: from tissue; host or cells: human liver microsomes
# T8 sequence (P10635 whole entry): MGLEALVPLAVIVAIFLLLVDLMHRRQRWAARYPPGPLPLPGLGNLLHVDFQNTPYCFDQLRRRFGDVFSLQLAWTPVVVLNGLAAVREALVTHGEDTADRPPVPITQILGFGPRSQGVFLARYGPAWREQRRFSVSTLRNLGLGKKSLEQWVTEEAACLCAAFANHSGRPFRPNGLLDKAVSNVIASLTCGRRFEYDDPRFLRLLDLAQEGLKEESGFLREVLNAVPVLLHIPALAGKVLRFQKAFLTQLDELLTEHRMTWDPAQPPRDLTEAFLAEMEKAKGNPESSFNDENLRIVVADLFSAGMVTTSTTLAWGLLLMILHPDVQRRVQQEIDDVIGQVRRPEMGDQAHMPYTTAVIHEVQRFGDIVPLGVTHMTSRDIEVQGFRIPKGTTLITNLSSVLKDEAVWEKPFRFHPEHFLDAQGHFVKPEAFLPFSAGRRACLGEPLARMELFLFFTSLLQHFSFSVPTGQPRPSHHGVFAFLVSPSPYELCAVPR
# From the text: as §3
# [13] = molecular target: T9, CYP 2C9 (Homo sapiens, UniProt P11712); assay: as above; format: in vitro ADME; settings: 2nd of 5 values; head prints Mk; footnote lists CYPs 1A2, 2C9, 2C19, 2D6, 3A4; read-out: CYPs inhibition (IC50, µM) (H/Mk/D/R/M)
# T9 construct: from tissue; host or cells: human liver microsomes
# T9 sequence (P11712 whole entry): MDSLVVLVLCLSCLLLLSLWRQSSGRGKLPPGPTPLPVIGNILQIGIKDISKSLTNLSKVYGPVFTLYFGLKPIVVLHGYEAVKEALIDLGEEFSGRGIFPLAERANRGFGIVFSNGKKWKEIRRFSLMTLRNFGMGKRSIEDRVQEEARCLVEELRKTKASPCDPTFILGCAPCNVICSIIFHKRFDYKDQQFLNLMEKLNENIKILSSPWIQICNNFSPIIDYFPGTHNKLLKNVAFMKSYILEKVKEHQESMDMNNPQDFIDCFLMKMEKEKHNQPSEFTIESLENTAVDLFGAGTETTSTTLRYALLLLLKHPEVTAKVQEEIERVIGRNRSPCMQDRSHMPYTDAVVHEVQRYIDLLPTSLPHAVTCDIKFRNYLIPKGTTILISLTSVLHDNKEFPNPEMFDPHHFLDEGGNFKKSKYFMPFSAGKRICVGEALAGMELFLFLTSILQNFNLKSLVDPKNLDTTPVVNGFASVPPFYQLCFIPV
# From the text: as §3
smiles,measurement,setting,value
"N#Cc1ccc(Cc2nc(C(=O)NCC(=O)N3CC(F)(F)C[C@H]3C#N)cs2)cc1 [BR103354, (S)-N-(2-(2-cyano-4,4-difluoropyrrolidin-1-yl)-2-oxoethyl)-2-(4-cyanobenzyl)thiazole-4-carboxamide]",Tmax,[1],3 h
same,fraction unbound at 1 µg/mL,[2],0.33
same,IC50,[3],> 100000 nM
same,IC50,"[4]; 40 μM Suc-Gly-Pro-Leu-Gly-Pro-AMC, 60 min at 37 °C, read-out: IC50 (nM) FAP",14 nM
same,IC50,"[4]; various assays: SDS-PAGE shift, AMC-coupled substrate, serum samples from different species, read-out: IC50 values on FAP, all measurements",10 to 30 nM
same,IC50,[5],5040 nM
same,"nonfasting blood glucose level, average",[6]; 20 mg/kg p.o. + hFGF21 0.1 mg/kg i.p.,178 mg/dL
same,"nonfasting blood glucose level, average",[6]; 50 mg/kg p.o. + hFGF21 0.1 mg/kg i.p.,154 mg/dL
same,decrease of blood glucose AUC,[6]; 20 or 50 mg/kg p.o. + hFGF21 0.1 mg/kg i.p.,40–45%
same,levels of intact FGF21 in plasma,"[6]; co-administered with hFGF21 0.1 mg/kg, until 3 h",increased levels of intact FGF21 in plasma until 3 h
same,levels of intact FGF21,"[6]; co-administered with hFGF21, after 6 h of administration",lower than 10 ng/mL
same,glucose tolerance (oral glucose tolerance test),[7]; 50 mg/kg,improved glucose tolerance significantly
same,"FGF21, ATF4 and CHOP mRNA expression in liver",[7]; 4 weeks,increased
same,liver TG content (Oil red O staining),[7]; 4 weeks,decreased
same,body weight between treatments,[7]; 4 weeks (data not shown),no change
same,ERK phosphorylation in adipose tissues,"[7]; 4 weeks, vs vehicle",increased
same,Serum alanine aminotransferase (ALT),"[7]; 4 weeks, vs vehicle",significantly reduced
same,aspartate aminotransferase (AST),"[7]; 4 weeks, vs vehicle",significantly reduced
same,non-esterified free fatty acid (NEFA) levels,"[7]; 4 weeks, vs vehicle",unaltered
same,serum TG,"[7]; 4 weeks, vs vehicle",unaltered
same,total cholesterol,"[7]; 4 weeks, vs vehicle",significantly reduced
same,nonfasting blood glucose,"[7]; 20 and 50 mg/kg once daily p.o., from 2 weeks, vs vehicle (P < 0.01)",significantly decreased
same,increase of total form of serum FGF21,"[7]; 20 and 50 mg/kg, week 4",approximately 1.4 fold
same,adiponectin level in white adipose tissues,[7]; after 4 weeks of treatment,increased
same,fasting blood glucose levels,[7]; after 4 weeks of treatment,significantly reduced
same,fasting body weights,[7]; after 4 weeks of treatment,significantly reduced
same,insulin levels,[7]; after 4 weeks of treatment,significantly reduced
same,liver weights,[7]; after 4 weeks of treatment,significantly reduced
same,IC50,[8],387 nM
same,IC50,[9],> 50 µM
same,IC50,[10],> 50 µM
same,IC50,[11],> 50 µM
same,IC50,[12],> 50 µM
same,IC50,[13],> 50 µM
